# In patent US3955959A, “Herbicide for use in transplanted rice” (priority 1974, dated 1976):
# Where “and” joins values, the source holds several entries; their conditions need not be identical. Equal values may be shown once.
# What was measured:
# Monochoria vaginalis = experiment: Example 2 field test, weed control, Chia Yi, Taiwan; format: in vivo; details: obs. 63 DAT
# Protocol: In the field tests of the herbicide of this invention with transplanted rice, the rice seedlings were grown in conventional manner, by seeding the rice in a typical seedbed of sandy loam to clay soil of the country wherein the test was conducted. For laboratory and greenhouse work the seedlings were obtained by seeding rice in a mixture of soil, e.g., Ray silt loam, and peat in wood flats. For purposes of testing the herbicides on younger rice seedlings (infant or Dapog) the rice was usually allowed to grow for 6-15 days before lifting for transplanting. Older (ordinary) rice plants were usually grown for a period of about 2-3 weeks, or as much as about 7 weeks before lifting. Since the period of growth is dependent upon climatic conditions, a better measure of when to transplant the rice seedling is the leaf stage of growth; for infant or Dapog rice the seedling is lifted at the 1.5-2 leaf stage of growth, and for ordinary seedlings at the 2.5-5 leaf stage. The seedlings were then transplanted to the test plots for evaluation of the herbicide for injury against weed species present with the transplanted rice. The herbicides were then applied to the growth medium of the weeds and transplant rice, either preemergent or postemergent with respect to the weeds and postemergent with respect to the transplanted rice. […] Application rates given in the tables refer to the amount of active ingredient used.
# transplanted rice = experiment: Example 2 field test, crop injury; details: obs. 63 DAT
# Protocol: (§1) In the tests described in the tables below, the herbicides were formulated and used in granular form in conventional manner. […] The commercial herbicide used was a granular product having 5% active ingredient.
# (§2) In the field tests of the herbicide of this invention with transplanted rice, the rice seedlings were grown in conventional manner, by seeding the rice in a typical seedbed of sandy loam to clay soil of the country wherein the test was conducted. For laboratory and greenhouse work the seedlings were obtained by seeding rice in a mixture of soil, e.g., Ray silt loam, and peat in wood flats. For purposes of testing the herbicides on younger rice seedlings (infant or Dapog) the rice was usually allowed to grow for 6-15 days before lifting for transplanting. Older (ordinary) rice plants were usually grown for a period of about 2-3 weeks, or as much as about 7 weeks before lifting. Since the period of growth is dependent upon climatic conditions, a better measure of when to transplant the rice seedling is the leaf stage of growth; for infant or Dapog rice the seedling is lifted at the 1.5-2 leaf stage of growth, and for ordinary seedlings at the 2.5-5 leaf stage. The seedlings were then transplanted to the test plots for evaluation of the herbicide for injury against weed species present with the transplanted rice. The herbicides were then applied to the growth medium of the weeds and transplant rice, either preemergent or postemergent with respect to the weeds and postemergent with respect to the transplanted rice. Application times are designated in the tables as "DAT", meaning "days after transplant". Application rates given in the tables refer to the amount of active ingredient used.
# Rice seedlings (ordinary) of Tainan No. 5 variety (japonica) were transplanted at 19 days of growth. Granular formulations of Herbicides A and B were applied at the 1 leaf stage of grass weed (4 DAT) and 2.5 leaf stage of grass weed (10 DAT). Observations were made at 63 DAT and results reported in Table 2 as an average of 3 replications.
# [1] = test system: Broadleaf: Mv, Sz (Monochoria vaginalis, Sphenoclea zeylanica); experiment: Example 3 field test on Dapog rice, weed control, Munoz, Philippines; format: in vivo, Monochoria vaginalis and Sphenoclea zeylanica; details: obs. 42 DAT
# Excerpt: Treatments were replicated four times.
# Dapog transplanted rice [2] = experiment: Example 3 field test, crop injury; details: for Crop Injury (%): obs. 42 DAT
# Protocol: as §1, §2
# (§3) Eleven (11) day-old Dapog seedlings were transplanted and treated at 5 DAT and 14 DAT with Herbicides A and B. The plots were overseeded with Echinochloa crusgalli seeds at 2 kgs/ha prior to transplanting. Treatments were replicated four times.
# Dapog transplanted rice [3] = experiment: Example 3 field test, rice yield; format: in vivo; details: in vivo
# Protocol: as §1, §2, §3
# [4] = test system: ordinary transplanted rice; experiment: Example 4 field test, crop injury; details: obs. 36 DAT
# Protocol: as §1, §2
# In this example comparative field tests were conducted with Herbicides A and B on ordinary transplanted rice at Munoz, Philippines.
# Twenty-one (21) day-old ordinary wet bed seedlings of the Fortuna variety were transplanted to field plots and Herbicides A and B applied at 5 DAT and 14 DAT. The field plots were overseeded with barnyardgrass (E. crusgalli) at 2 kgs/ha. Treatments were replicated four times.
# Ann. Cyp (Cyperus spp) = experiment: Example 5 field test, weed control, JAAPR, Japan
# Protocol: as §1, §2
# The rice seedlings were grown to the 1.7 leaf stage for infant seedlings and to the 5.5 leaf stage for ordinary seedlings. Two days after puddling the soil in which the seedlings were to be transplanted, both infant and ordinary seedlings were transplanted into plots 8.5 m^2.
# The weed symbol "Obw" represents "other broadleaf weeds" of unspecified identity. Results presented in Table 5 represent the average of 2 replications.
# [5] = test system: Ea (Eleocharis acicularis); experiment: Example 5 field test, weed control, JAAPR, Japan; format: in vivo
# [6] = test system: weeds in upland direct-seeded rice; experiment: Example 7 overall; format: in vivo; details: direct-seeded rice cultures
# Protocol: In a further comparative study of the preemergence activity of Herbicides A and B, a variety of weeds and upland direct-seeded rice were tested under greenhouse conditions. The present invention is not concerned with the use of Herbicide A in direct-seeded rice. The primary purpose of the experimental work in this example is to compare relative herbicidal activity of Herbicides A and B against the weeds shown in Table 7; most of these weeds were not available for tests with transplanted rice. Although the relative selectivity of these herbicides in upland rice is also evident, that aspect of the tests is more or less incidental to the purpose of this example.
# In this example, rice seeds and seeds of the weeds shown in Table 7 were sown in Ray silt loam soil at a depth of 0.5 inch (1.27 cm) in containers for the soil in a greenhouse. Herbicides A and B were applied to the surface of the soil at a spray volume equivalent to 20 gals/acre (187.1 liters/hectare), followed by 0.5 in (1.27 cm) of overhead irrigation. Temperature and relative humidity in the greenhouse were on the order of 85°F (29°C) and 75%, respectively. Observations were made at 21-28 days after seeding. […]
# [7] = 1.0 kg/ha, 15 DAT, infant seedlings
# [8] = 1.0 kg/ha, 15 DAT, ordinary seedlings
# [9] = .25 kg/ha, 2 DAT, infant seedlings
# [10] = .25 kg/ha, 2 DAT, ordinary seedlings
# [11] = .5 kg/ha, 7 DAT, infant seedlings
# [12] = .5 kg/ha, 7 DAT, ordinary seedlings
smiles,measurement,setting,value
"CCCCOCN(C(=O)CCl)c1c(C)cccc1C(C)(C)C [Herbicide A, n-(butoxymethyl)-6'-tert-butyl-2-chloro-o-acetotoluidide]",% Weed Control (Monochoria Vaginalis),"Monochoria vaginalis; 4 DAT, 1.0 kg/ha",100%
same,% Weed Control (Monochoria Vaginalis),"Monochoria vaginalis; 4 DAT, 2.0 kg/ha",100%
same,% Weed Control (Monochoria Vaginalis),"Monochoria vaginalis; 4 DAT, .25 kg/ha",80%
same,% Weed Control (Monochoria Vaginalis),"Monochoria vaginalis; 4 DAT, .5 kg/ha",99%
same,% Weed Control (Monochoria Vaginalis),"Monochoria vaginalis; 10 DAT, 1.0 kg/ha",99%
same,% Weed Control (Monochoria Vaginalis),"Monochoria vaginalis; 10 DAT, 2.0 kg/ha",99%
same,% Weed Control (Monochoria Vaginalis),"Monochoria vaginalis; 10 DAT, .25 kg/ha",35%
same,% Weed Control (Monochoria Vaginalis),"Monochoria vaginalis; 10 DAT, .5 kg/ha",87%
same,"% Crop Injury, stand","transplanted rice; 4 DAT, 1.0 kg/ha",0%
same,"% Crop Injury, vigor","transplanted rice; 4 DAT, 1.0 kg/ha",0%
same,"% Crop Injury, stand","transplanted rice; 4 DAT, 2.0 kg/ha",5%
same,"% Crop Injury, vigor","transplanted rice; 4 DAT, 2.0 kg/ha",27%
same,"% Crop Injury, stand","transplanted rice; 4 DAT, .25 kg/ha",0%
same,"% Crop Injury, vigor","transplanted rice; 4 DAT, .25 kg/ha",0%
same,"% Crop Injury, stand","transplanted rice; 4 DAT, .5 kg/ha",0%
same,"% Crop Injury, vigor","transplanted rice; 4 DAT, .5 kg/ha",0%
same,"% Crop Injury, stand","transplanted rice; 10 DAT, 1.0 kg/ha",3%
same,"% Crop Injury, vigor","transplanted rice; 10 DAT, 1.0 kg/ha",7%
same,"% Crop Injury, stand","transplanted rice; 10 DAT, 2.0 kg/ha",15%
same,"% Crop Injury, vigor","transplanted rice; 10 DAT, 2.0 kg/ha",25%
same,"% Crop Injury, stand","transplanted rice; 10 DAT, .25 kg/ha",0%
same,"% Crop Injury, vigor","transplanted rice; 10 DAT, .25 kg/ha",0%
same,"% Crop Injury, stand","transplanted rice; 10 DAT, .5 kg/ha",0%
same,"% Crop Injury, vigor","transplanted rice; 10 DAT, .5 kg/ha",2%
same,"% Weed control, Broadleaf (Mv,Sz)","[1]; 5 DAT, 1.0 kg/ha",100%
same,"% Weed control, Broadleaf (Mv,Sz)","[1]; 5 DAT, 2.0 kg/ha",100%
same,"% Weed control, Broadleaf (Mv,Sz)","[1]; 5 DAT, .25 kg/ha",100%
same,"% Weed control, Broadleaf (Mv,Sz)","[1]; 5 DAT, .5 kg/ha",100%
same,"% Weed control, Broadleaf (Mv,Sz)","[1]; 14 DAT, 1.0 kg/ha",60%
same,"% Weed control, Broadleaf (Mv,Sz)","[1]; 14 DAT, 2.0 kg/ha",60%
same,"% Weed control, Broadleaf (Mv,Sz)","[1]; 14 DAT, .25 kg/ha",0%
same,"% Weed control, Broadleaf (Mv,Sz)","[1]; 14 DAT, .5 kg/ha",60%
same,Crop Injury (%),"Dapog transplanted rice [2]; 5 DAT, 1.0 kg/ha",40%
same,Crop Injury (%),"Dapog transplanted rice [2]; 5 DAT, 2.0 kg/ha",50%
same,Crop Injury (%),"Dapog transplanted rice [2]; 5 DAT, .25 kg/ha",0%
same,Crop Injury (%),"Dapog transplanted rice [2]; 5 DAT, .5 kg/ha",0%
same,Crop Injury (%),"Dapog transplanted rice [2]; 14 DAT, 1.0 kg/ha",0%
same,Crop Injury (%),"Dapog transplanted rice [2]; 14 DAT, 2.0 kg/ha",80%
same,Crop Injury (%),"Dapog transplanted rice [2]; 14 DAT, .25 kg/ha",0%
same,Crop Injury (%),"Dapog transplanted rice [2]; 14 DAT, .5 kg/ha",0%
same,rice injury in words,"Dapog transplanted rice [2]; higher rates, 5 DAT",considerable rice injury
same,Yield (% of H.W. Check),Dapog transplanted rice [3],182% and 177% and 139% and 104% and 93% and 98% and 113%
same,rice yield vs hand weeded check,Dapog transplanted rice [3],statistically similar to the hand weeded check
same,yield in words,Dapog transplanted rice [3],outstanding
same,Crop Injury (%),"[4]; 5 DAT, 1.0 kg/ha",0%
same,Crop Injury (%),"[4]; 5 DAT, 2.0 kg/ha",60%
same,Crop Injury (%),"[4]; 5 DAT, .25 kg/ha",0%
same,Crop Injury (%),"[4]; 5 DAT, .5 kg/ha",0%
same,Crop Injury (%),"[4]; 14 DAT, 1.0 kg/ha",0%
same,Crop Injury (%),"[4]; 14 DAT, 2.0 kg/ha",30%
same,Crop Injury (%),"[4]; 14 DAT, .25 kg/ha",0%
same,Crop Injury (%),"[4]; 14 DAT, .5 kg/ha",0%
same,control of Ann. Cyp in words,"Ann. Cyp (Cyperus spp); 0.25 kg/ha both plots, 1.0 kg/ha ordinary",controlled completely
same,% Weed Control (Ann. Cyp),Ann. Cyp (Cyperus spp); [7],100%
same,% Weed Control (Ann. Cyp),Ann. Cyp (Cyperus spp); [8],100%
same,control of Ann. Cyp in words,"Ann. Cyp (Cyperus spp); 1.0 kg/ha, infant seedling plots",controlled
same,% Weed Control (Ann. Cyp),Ann. Cyp (Cyperus spp); [9],100%
same,% Weed Control (Ann. Cyp),Ann. Cyp (Cyperus spp); [10],100%
same,% Weed Control (Ann. Cyp),Ann. Cyp (Cyperus spp); [11],75%
same,% Weed Control (Ann. Cyp),Ann. Cyp (Cyperus spp); [12],80%
same,% Weed Control (Ea),[5]; [7],89%
same,% Weed Control (Ea),[5]; [8],90%
same,% Weed Control (Ea),[5]; [9],87%
same,% Weed Control (Ea),[5]; [10],79%
same,% Weed Control (Ea),[5]; [11],89%
same,% Weed Control (Ea),[5]; [12],98%
same,activity vs Herbicide B in direct-seeded rice,[6],significantly more active
